Assay results as given in PubChem BioAssay AID463199 (Broad Institute, 2010).
Calls of active or inactive are those of the source.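 The calls were made as follows: active = AC50, the dose giving half-maximal effect, exceeds a fixed cutoff for a compound that rescues yeast growth under heat; inactive = the rest, inconclusive results apart.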

System: S. cerevisiae Burl-1 ts mutant growth, BacTiter-Glo, 38.5C 24 h
Experiment: restored growth of temperature-sensitive Burl-1 yeast – whole organism, S. cerevisiae, Burl-1 ts mutant, luminescence, counter-screen for SUMOylation pathway inhibitor project, dose response (AID 463199)

Structure (SMILES) | AC50
CCn1c(SCC(=O)Nc2ccc(NC(=O)c3ccco3)cc2)nnc1-c1cccs1 | > 42 µM (inactive)
COc1ccccc1CNc1ncnc2nc[nH]c12 | > 42 µM (inactive)
S=C(NCCc1ccccc1)Nc1ccccc1Cl | > 42 µM (inactive)
Cc1ccc(N=c2ssnc2Cl)cc1 | > 42 µM (inactive)
O=C(OCc1nnc(-c2ccccc2)o1)c1ccc([N+](=O)[O-])o1 | > 42 µM (inactive)
CCCc1cc(=S)n2c([nH]c3ccccc32)c1C#N | > 42 µM (inactive)
CC(CN1CCCCCC1)C(=O)NN (configuration not stated) | > 42 µM (inactive)
O=C(CSc1nnc2ccccn12)NNC(=O)c1ccc(Cl)cc1 | > 42 µM (inactive)
CCOC(=O)c1cccc(NC(=O)C2CCCN(S(=O)(=O)c3c(C)n[nH]c3C)C2)c1 (configuration not stated) | > 42 µM (inactive)
CCN(CC)c1nc(Nc2ccc(Cl)cc2)nc(OCC#N)n1 | > 42 µM (inactive)
Cc1c(C(=O)NC(C)C)oc2c1-c1[nH]ncc1CC2 | > 42 µM (inactive)
CN(C)c1oc(-c2ccccc2Cl)nc1S(=O)(=O)c1ccccc1 | > 42 µM (inactive)
O=C(O)CCc1ccc(-c2ccccc2)n1NC(=O)c1cccs1 | > 42 µM (inactive)
Cc1nc2c(-c3ccc(F)cc3)cnn2c2c1CCC2 | > 42 µM (inactive)
CCCOC(=O)C1=C(C)NC2=C(C(=O)CCC2)C1c1cccs1 (configuration not stated) | > 42 µM (inactive)
O=C(Nc1ccc(F)cc1)c1ccc(CSc2ccccc2)o1 | > 42 µM (inactive)
Cc1onc(-c2ccccc2Cl)c1C(=O)N1CCc2ccccc2C1 | > 42 µM (inactive)
O=C(CCl)N(Cc1cc(=O)[nH]c2ccccc12)c1ccccc1 | > 42 µM (inactive)
COc1cc(C(=O)OCC(=O)NC(C)CCc2ccccc2)cc(OC)c1OC (configuration not stated) | > 42 µM (inactive)
CCOC1(OCC)C(c2ccc(Cl)cc2)C(C#N)(C#N)C1(OCC)OCC (configuration not stated) | > 42 µM (inactive)
COC(=O)C1C(c2ccc(OC)c(OC)c2)NC(c2ccc(OC)c(OC)c2)C(C(=O)OC)S1(=O)=O (configuration not stated) | > 42 µM (inactive)
O=C(COC(=O)/C=C/c1ccco1)Nc1ncc(C(F)(F)F)cc1Cl | > 42 µM (inactive)
CS(=O)(=O)N(CC(=O)Nc1ccccc1C(=O)N1CCCC1)c1ccc2c(c1)OCO2 | > 42 µM (inactive)
S=C(Nc1ccc(Cl)cc1)N1CCN(Cc2ccccc2)CC1 | > 42 µM (inactive)
COc1cc(C)ccc1OCCCOc1ccccc1Br | > 42 µM (inactive)
O=C(N/N=C/C(Br)=C/c1ccccc1)c1cccnc1 | > 42 µM (inactive)

Structure (SMILES) | AC50
Cc1ccc(S(=O)(=O)N2[C@@H](c3ccccc3F)C(C(=O)O)=CC[C@H]2c2ccc3c(c2)OCO3)cc1 | > 42 µM (inactive)
Cc1ccccc1NC1=NCCCS1 | > 42 µM (inactive)
CC(NC(=O)C12CC3CC(CC(O)(C3)C1)C2)c1ccccc1 (configuration not stated) | > 42 µM (inactive)
COc1ccccc1NC(=O)c1ccc(-n2ccnc2)c([N+](=O)[O-])c1 | > 42 µM (inactive)
NNc1nc2sc3c(c2c(=O)n1-c1ccccc1)CCCC3 | > 42 µM (inactive)
COc1ccc(C2C(C(C)=O)=C(O)C(=O)N2CCO)c(OC)c1 (configuration not stated) | > 42 µM (inactive)
O=C(/C=C/c1ccc(Cl)cc1)NCc1ccncc1 | 42 µM
Cn1c(SCC(=O)Nc2ccc(N3CCOCC3)c(Cl)c2)nnc1-c1ccccc1 | > 42 µM (inactive)
COC(CNC(=O)c1cn(C)c2ccc(S(=O)(=O)N3CCOCC3)cc2c1=O)OC | > 42 µM (inactive)
Cc1ccc2nc(N/N=C/c3ccccc3F)nc(-c3ccccc3)c2c1 | > 42 µM (inactive)
O=C(Nc1ccc(F)cc1)c1cccnn1 | > 42 µM (inactive)
COc1ccccc1C1NC(=O)CS1 (configuration not stated) | > 42 µM (inactive)
CCOC(=O)c1cc(C#N)c(Oc2ccccc2OC)nc1-c1ccccc1 | > 42 µM (inactive)
CCC(=O)c1c[nH]c(C(=O)NCCCn2ccnc2)c1 | > 42 µM (inactive)
Cc1ccc(C2=NN(CC(=O)NCc3cccs3)C(=O)CC2)cc1 | > 42 µM (inactive)
CNC(=O)c1ccccc1NC(=O)c1c(O)c2c([nH]c1=O)CCCC2 | > 42 µM (inactive)
COc1c2ccoc2nc2c(OC)c(OC[C@@H](O)C(C)(C)O)ccc12 | > 42 µM (inactive)
COc1ccc(NC2CCCN(C(=O)c3csc(C)n3)C2)cc1 (configuration not stated) | > 42 µM (inactive)
O=C(CSCc1ccc(Cl)cc1)N1CCCCC1 | > 42 µM (inactive)
Cc1ccccc1CSc1n[nH]c(NS(=O)(=O)c2ccccc2)n1 | > 21 µM (inactive)
CCC(=O)Nc1nc(CC(=O)Nc2ccccc2OC)cs1 | > 42 µM (inactive)
O=C1c2cc(N3CCCC3)c([N+](=O)[O-])cc2C(=O)N1c1ccccc1 | > 42 µM (inactive)
Cc1ccc(Sc2cnccc2C#N)cc1 | > 42 µM (inactive)
CCOC(=O)c1[nH]c2ccc(F)cc2c1NC(=O)CCN1CCOCC1 | > 42 µM (inactive)
COc1ccccc1C(=O)N(NC(=O)Oc1ccccc1)C(C)(C)C | > 42 µM (inactive)
CCOc1ccc(NC(=O)Nc2ccc3nsnc3c2)cc1 | > 42 µM (inactive)

Structure (SMILES) | AC50
CC1(C)C2CC=C(/C=N/NC(=S)Nc3cccnc3)C1C2 (configuration not stated) | > 42 µM (inactive)
CCN1C(=S)N[C@@H](CCc2ccccc2)C(C(=O)OC)=C1C | > 42 µM (inactive)
COCC(=O)n1nc(-c2ccc(Cl)cc2)nc1NCc1ccc(F)cc1 | > 42 µM (inactive)
CCCOc1ccccc1C1NC(=O)NC(C)=C1C(=O)OCCOCC (configuration not stated) | > 42 µM (inactive)
CCCNCC(O)COc1ccccc1C(=O)CCc1ccccc1 (configuration not stated) | > 42 µM (inactive)
CC(C)C(NC(=O)c1ccccc1)C(=O)NCC(c1ccccc1)N(C)C (configuration not stated) | > 42 µM (inactive)
Cc1ccc(C(=O)c2cc([N+](=O)[O-])ccc2N2CCCCC2)cc1C | > 42 µM (inactive)
CCCCCCNc1c(C(=O)OCC)c(=O)[nH]c2ccccc12 | > 42 µM (inactive)
CCC(CC)C(=O)Nc1ccc(S(=O)(=O)Nc2nccs2)cc1 | 26 µM
O=S(=O)(c1ccc(C2CCCCC2)cc1)N1CCCC1 | > 42 µM (inactive)
COc1cc(C(=O)COC(=O)c2cc([N+](=O)[O-])ccc2N2CCOCC2)ccc1OC(F)F | > 42 µM (inactive)
CC(=O)Nc1sc2c(c1C(c1ccc(F)cc1)N1CCOCC1)CCCC2 (configuration not stated) | > 42 µM (inactive)
O=C(CCC(=O)Nc1ccc(F)cc1)N/N=C/c1cccs1 | > 42 µM (inactive)
Cc1cc(C)c2c(Cn3ccnc3)cc(=O)oc2c1 | > 42 µM (inactive)
COc1ccc(NC(=O)c2ccc(-n3cncn3)c([N+](=O)[O-])c2)cc1 | > 21 µM (inactive)
COc1ccc(/C=C/C(=O)N2CCC(C(N)=O)CC2)cc1S(=O)(=O)N1CCOCC1 | > 42 µM (inactive)
CN(C(=O)COC(=O)c1cc2ccccc2cc1O)c1c(N)n(Cc2ccccc2)c(=O)[nH]c1=O | > 42 µM (inactive)
CCOC(=O)c1cnc2ccc(Cl)cc2c1N1CCN(C)CC1 | > 42 µM (inactive)
CC1(OC(=O)C2CCCC2)C(=O)C=C2C=C(c3ccsc3)OC=C2C1=O (configuration not stated) | > 42 µM (inactive)
Cc1ccc(C(=O)NCC(=O)Nc2ccc3c(c2)OCCO3)cc1 | 18.5 µM
COc1cccc(NC(=O)CN2CCN(c3ccccc3F)CC2)c1 | > 42 µM (inactive)
CC(=O)c1ccc(NC(=O)CSc2nnc(-c3ccco3)o2)cc1 | > 42 µM (inactive)
COc1ccc(CN(C)C(=O)c2sccc2-c2ccccc2)c(OC)c1 | > 42 µM (inactive)
Cc1cc(C)c(NC(=O)CCN2CCN(Cc3ccccc3)CC2)c(C)c1 | > 42 µM (inactive)
Cc1ccc(NC(=O)Cn2nc(C)c3ccccc3c2=O)cc1 | > 42 µM (inactive)
O=C(OCc1ccccc1)c1cccc(-c2nnn(Cc3ccccc3)n2)c1 | > 42 µM (inactive)

Structure (SMILES) | AC50
CC(C)(C)c1ccc(CN(Cc2ccccc2)C(c2ccccn2)c2nnnn2C(C)(C)C)cc1 (configuration not stated) | > 42 µM (inactive)
COC(=O)[C@H](Cc1ccccc1)NC(=O)NC(C)CCc1ccccc1 (some centres not stated) | > 42 µM (inactive)
CN(C)S(=O)(=O)c1ccc(Cl)c(NC(=O)CN2C(=O)NC(C)(C3CC3)C2=O)c1 (configuration not stated) | > 42 µM (inactive)
COc1ccc(C(=O)CSc2nnc(CNC(=O)c3ccccc3)n2C)cc1 | > 42 µM (inactive)
O=C(CSc1nc(-c2ccccc2)cc(=O)[nH]1)Nc1ccc(Br)cc1 | > 42 µM (inactive)
Cn1c(=NC(=O)COc2ccccc2)sc2cc(F)cc(F)c21 | > 42 µM (inactive)
COc1ccc(C(=O)Nn2c(SCC(=O)NCc3ccccc3)nc3ccccc3c2=O)cc1 | > 42 µM (inactive)
C=CCNC(=O)NC(=O)COC(=O)CCCSc1nc2ccccc2[nH]1 | > 42 µM (inactive)
CN(CC(=O)Nc1cccc(F)c1)CC(=O)Nc1cccc(S(N)(=O)=O)c1 | > 42 µM (inactive)
O=Cc1ccc(Oc2cccc(C(F)(F)F)c2)nc1 | > 42 µM (inactive)
CN(C)C(=O)CN1C(=O)c2cccc3cccc1c23 | > 42 µM (inactive)
COc1cc(/C=C2\NC(=S)N(C)C2=O)ccc1OCc1cccc(F)c1 | > 42 µM (inactive)
Cc1nn(CCOc2ccccc2)c(=O)n1-c1ccccc1F | > 42 µM (inactive)
CCNc1ccc(S(=O)(=O)N(C)C)cc1NCC(=O)Nc1ccccc1Br | > 42 µM (inactive)
COc1ccc(NC(=O)CN(C)C(=O)c2cc(C)on2)cc1 | > 42 µM (inactive)
CC(C)Cc1cc(CN2CCC(CO)(Cc3ccccc3)CC2)[nH]n1 | > 42 µM (inactive)
O=c1[nH]cnc2sc3c(c12)CCC3 | > 42 µM (inactive)
COc1ccc(C2NC(=O)c3ccccc3O2)cc1 (configuration not stated) | > 42 µM (inactive)
COc1ccc(NC(=O)C2CCCN(C(=O)Nc3cccc(OC)c3)C2)cc1 (configuration not stated) | > 42 µM (inactive)
Cc1ccc(/C(N)=N/OC(=O)/C=C/c2ccccc2)cc1 | > 42 µM (inactive)
CCOC(=O)N1CCN(c2nnnn2-c2ccccc2)CC1 | > 42 µM (inactive)
CCNC(=O)NC(C(=O)OC)C12CC3CC(CC(C3)C1)C2 (configuration not stated) | > 42 µM (inactive)
O=C(c1cc(N2C(=O)C3C4CCC(C4)C3C2=O)ccc1Cl)N1CCCCCC1 (configuration not stated) | > 42 µM (inactive)
Cc1nc2c3ccccc3nc(NNC(=O)CCC(=O)N3CCCC(C)C3)n2n1 (configuration not stated) | > 42 µM (inactive)
